One experiment deals with Pseudomonas aeruginosa. The experiment in a line: Antibacterial activity against Pseudomonas aeruginosa at 10 ug/ml. Format: functional, organism-based.
The next experiment has as its system Staphylococcus aureus. The experiment in a line: Antibacterial activity against Staphylococcus aureus at 10 ug/ml. It is filed as functional, organism-based.
In another experiment the test system is Enterococcus faecalis. The experiment is described as follows: Antibacterial activity against Enterococcus faecalis at 10 ug/ml. Format: functional, organism-based.
In the next experiment the test system is Streptococcus pneumoniae. The experiment in a line: Antibacterial activity against Streptococcus pneumoniae at 10 ug/ml. It is filed as functional, organism-based.
A further experiment has as its system Escherichia coli. The experiment in a line: Antibacterial activity against Escherichia coli at 10 ug/ml. Format: functional, organism-based.
In experiment [1] the test system is Mycolicibacterium smegmatis. The experiment in a line: Antibacterial activity against Mycobacterium smegmatis at 10 ug/ml. Format: functional, organism-based.
For a further experiment, the system named is Acinetobacter baumannii. The experiment in a line: Antibacterial activity against Acinetobacter baumannii at 10 ug/ml. It is filed as functional, organism-based.
The test system of another experiment is MDA-MB-435. The experiment is described as follows: Antiproliferative activity against human MDA-MB-435 cells assessed as cell viability at 1 ng/ml after 96 hrs. The note with it: MDA-MB-435, 96 h, read-out: Activity. It is filed as functional.

Our source for the Activity and viability values is ChEMBL document CHEMBL2146392, “Minutissamides E-L, antiproliferative cyclic lipodecapeptides from the cultured freshwater cyanobacterium cf. Anabaena sp” (Bioorg Med Chem, 2012).

Activity calls are given as the source filed them. The rule behind the calls is not given here.

Turning to `C/C=C1/NC(=O)[C@H](C(C)C)NC(=O)[C@H](O)[C@@H]([C@@H](C)CCCCCCCCCCC(=O)CCC)NC(=O)[C@@H]2CCCN2C(=O)[C@H](CC(N)=O)N(C)C(=O)[C@H]([C@@H](C)OC)NC(=O)[C@@H](C)NC(=O)[C@H](CCC(N)=O)NC(=O)[C@H]([C@@H](C)O)NC(=O)[C@H]([C@@H](C)O)NC1=O`, the outcome (in the experiment with Pseudomonas aeruginosa; in the experiment with Staphylococcus aureus; with Enterococcus faecalis; in the experiment on Streptococcus pneumoniae; in the experiment with Escherichia coli; in experiment [1]) was inactive. Moreover, the result with Acinetobacter baumannii was inactive.

For the compound `CC[C@]1(O)C[C@@H]2CN(CCc3c([nH]c4ccccc34)[C@@](C(=O)OC)(c3cc4c(cc3OC)N(C)[C@H]3[C@@](O)(C(=O)OC)[C@H](OC(C)=O)[C@]5(CC)C=CCN6CC[C@]43[C@@H]65)C2)C1` [VINBLASTINE], in the experiment with MDA-MB-435, the viability at 0.001 µg/mL is 49%.

As to `C/C=C1/NC(=O)[C@H](C(C)C)NC(=O)[C@H](O)[C@@H]([C@@H](C)CCCCCCCCCCC(=O)CCC)NC(=O)[C@@H]2CCCN2C(=O)[C@H](CC(N)=O)N(C)C(=O)[C@H]([C@@H](C)OC)NC(=O)[C@@H](C)NC(=O)[C@H](CCC(N)=O)NC(=O)[C@H](C(C)C)NC(=O)[C@H]([C@@H](C)O)NC1=O`, the result (in the experiment with Pseudomonas aeruginosa; in the experiment on Staphylococcus aureus; in the experiment on Enterococcus faecalis; in the experiment with Streptococcus pneumoniae; in the experiment on Escherichia coli; in experiment [1]) was inactive. In addition, the outcome in the experiment with Acinetobacter baumannii was inactive.

On to `C/C=C1/NC(=O)[C@H](C(C)C)NC(=O)[C@H](O)[C@@H]([C@@H](C)CCCCCCCCCCC(=O)CCC)NC(=O)[C@@H]2CCCN2C(=O)[C@H](CC(N)=O)N(C)C(=O)[C@H]([C@@H](C)OC)NC(=O)CNC(=O)[C@H](CCC(N)=O)NC(=O)[C@H]([C@@H](C)O)NC(=O)[C@H]([C@@H](C)O)NC1=O`, for which the outcome (in the experiment with Pseudomonas aeruginosa; with Staphylococcus aureus; in the experiment on Enterococcus faecalis; in the experiment with Streptococcus pneumoniae; in the experiment with Escherichia coli; in experiment [1]) was inactive. The outcome with Acinetobacter baumannii was inactive.

In the case of `C/C=C1/NC(=O)[C@H](C(C)C)NC(=O)[C@H](O)[C@@H]([C@@H](C)CCCCCCCCCCC(O)CCC)NC(=O)[C@@H]2CCCN2C(=O)[C@H](CC(N)=O)N(C)C(=O)[C@H]([C@@H](C)OC)NC(=O)[C@@H](C)NC(=O)[C@H](CCC(N)=O)NC(=O)[C@H]([C@@H](C)O)NC(=O)[C@H]([C@@H](C)O)NC1=O` (stereo partly drawn), the outcome (in the experiment on Pseudomonas aeruginosa; in the experiment on Staphylococcus aureus; in the experiment on Enterococcus faecalis; with Streptococcus pneumoniae; with Escherichia coli; in experiment [1]) was inactive. Further, the result with Acinetobacter baumannii was inactive.

Turning to `C/C=C1/NC(=O)[C@H](C(C)C)NC(=O)[C@H](O)[C@@H]([C@@H](C)CCCCCCCC(Cl)CC)NC(=O)[C@@H]2CCCN2C(=O)[C@H](CC(N)=O)N(C)C(=O)[C@H]([C@@H](C)OC)NC(=O)CNC(=O)[C@H](CCC(N)=O)NC(=O)[C@H]([C@@H](C)O)NC(=O)[C@H]([C@@H](C)O)NC1=O` (stereo partly drawn), the result (in the experiment with Pseudomonas aeruginosa; with Staphylococcus aureus; with Enterococcus faecalis; in the experiment with Streptococcus pneumoniae; with Escherichia coli; in experiment [1]) was inactive. In addition, in the experiment on Acinetobacter baumannii, the outcome was inactive.

Take `C/C=C1/NC(=O)[C@H](C(C)C)NC(=O)[C@H](O)[C@@H]([C@@H](C)CCCCCCCC(Cl)CC)NC(=O)[C@@H]2CCCN2C(=O)[C@H](CC(N)=O)N(C)C(=O)[C@H]([C@@H](C)OC)NC(=O)[C@@H](C)NC(=O)[C@H](CCC(N)=O)NC(=O)[C@H]([C@@H](C)O)NC(=O)[C@H]([C@@H](C)O)NC1=O` (stereo partly drawn): the result (in the experiment with Pseudomonas aeruginosa; in the experiment with Staphylococcus aureus; with Enterococcus faecalis; in the experiment with Streptococcus pneumoniae; in the experiment with Escherichia coli; in experiment [1]) was inactive. Further, the result with Acinetobacter baumannii was inactive.
